Source: patent publication US20090214529A9, “KINESIN INHIBITORS” (TaiGen Biotechnology Co., Ltd., priority 2007, published 2009)

Columns and labels:
[1] = tested on: tumor cell; experiment: Cytotoxicity assay (MTS); format: cell-based; details: 72 h; incubation for three days; read-out: IC50, tumor cell growth inhibition (MTS)
In short: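 Tumour cells seeded overnight, then exposed to varying compound concentrations for three days. Viability read by MTS/PMS conversion to formazan (2 h, 37 °C, absorbance 490 nm). Results given as blank-corrected T/C (%) against vehicle controls.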

[2] = tested on: human colon cancer cell line (Colo205) xenograft; experiment: In vivo tumor growth inhibition assay, nude mice s.c. implanted tumor model
Procedure: The human colon cancer cell line (Colo205) obtained from the American Type Culture Collection (Rockville, Md.) was used for the xenograft model. The cell line was maintained in growth medium supplemented with L-glutamine, ribonucleosides, deoxyribonucleosides, 10% FCS, and the following antimicrobial agents: 100 IU/ml penicillin, […] streptomycin, and […] amphotericin B. Cultures were established in 75-cm^2 flasks (Costar, Cambridge, Mass.), maintained at 37° C. in a humidified atmosphere with 5% CO2 in air, and subcultured every 4˜7 days with 0.25% trypsin in HBSS (Invitrogen Life Technologies, Carlsbad, Calif.). For in vivo tumor growth, cells (1×10^7) suspended in 100 μl of PBS were inoculated in the flanks of 5-week-old female athymic BALB/cAnNCij-nu/nu mice (Charles River, Kanagawa, Japan). Seven days after inoculation (day 7), mice with tumors measuring 6-7 mm in diameter were randomly separated into 3 groups with five mice in each group. Compound 36 was dissolved in a vehicle (10% 40 mM sodium citrate, 5% Tween-80, 5% ethanol in saline) and intraperitoneally administered respectively to the groups of mice at the selected dose levels with the selected dosing regimen. A vehicle was administered to the third group of mice. Tumor size was measured twice weekly until day 30. Tumor volume (TV) was calculated as follows: volume=[length (mm)×width (mm)^2]×0.52. The tumor growth for each group was expressed by the median values of the ratio between the tumor volume measured at a specific day to the initial tumor volume measured at the day of first dosing.

[3] = tested on: Human Colo205 cells; experiment: Cell cycle arrest assay (flowcytometry, propidium iodide); format: cell-based; details: DNA content by flowcytometry
Procedure: The efficacy of a test compound to arrest cells as a KSP inhibitor was determined by flowcytometry analysis. Human Colo205 cells were grown in 6-well plates and treated the next day with the test compound for various time lengths. They were then scraped from plates using a rubber policeman, washed with PBS, and centrifuged at 1,000 rpm for 5 minutes. 1 ML of a buffer containing 10 μM of propidium iodide and 50 ug/ml of RNase A was used to re-suspend the cells. The cells were subsequently incubated in this buffer for 10 minutes at room temperature in the dark, passed through a filter to remove cell clumps, and observed under a Coulter Epics XL-MCL Training Modules flowcytometer.

Cc1ccc(C(=O)N(CCN)C(c2nc3c(oc4ccc(Cl)cc43)c(=O)n2Cc2ccccc2)C(C)C)cc1 (stereo not shown) [Compound 36]
IC50 [1]: < 30 µM
tumor growth inhibition (in words) ([2]; 40 mg/Kg and 30 mg/Kg, intraperitoneal, q2dx5, Colo205 xenograft): significant tumor growth inhibition
tumor growth inhibition at day 10 ([2]; 40 mg/Kg and 30 mg/Kg, intraperitoneal, q2dx5, day 10): more than 83%
tumor growth inhibition at day 13 ([2]; 40 mg/Kg and 30 mg/Kg, intraperitoneal, q2dx5, day 13): more than 90%
tumor growth inhibition at day 16 ([2]; 40 mg/Kg and 30 mg/Kg, intraperitoneal, q2dx5, day 16): more than 92%
tumor inhibition, higher dose versus lower dose ([2]; 40 mg/Kg compared with 30 mg/Kg, q2dx5): stronger tumor inhibition

Cc1ccc(C(=O)N(CCN)C(c2nc3c(oc4ccc(F)cc43)c(=O)n2Cc2ccccc2)C(C)C)cc1 (stereo not shown) [Compound 62]
shift in cell cycle population [3]: shift in the population of cells from a G0/G1 stage (2N DNA content) to a G2/M stage (4N DNA content)

Cc1ccc(C(=O)N(CCN)C(c2nc3c(oc4ccc(F)cc43)c(=O)n2Cc2ccc(Br)s2)C(C)C)cc1 (stereo not shown) [Compound 66]
shift in cell cycle population [3]: shift in the population of cells from a G0/G1 stage (2N DNA content) to a G2/M stage (4N DNA content)
IC50 [1]: < 30 µM

Cc1ccc(C(=O)N(CCN)C(c2nc3c(oc4ccc(F)cc43)c(=O)n2Cc2ccc(Br)o2)C(C)C)cc1 (stereo not shown) [Compound 81]
shift in cell cycle population [3]: shift in the population of cells from a G0/G1 stage (2N DNA content) to a G2/M stage (4N DNA content)
IC50 [1]: < 30 µM

Cc1ccc(C(=O)N(CCN)C(c2nc3c(oc4ccc(F)cc43)c(=O)n2Cc2ccc(C#N)s2)C(C)C)cc1 (stereo not shown) [Compound 83]
shift in cell cycle population [3]: shift in the population of cells from a G0/G1 stage (2N DNA content) to a G2/M stage (4N DNA content)
IC50 [1]: < 30 µM

Cc1ccc(C(=O)N(CCN)C(c2nc3c(oc4ccc(F)cc43)c(=O)n2Cc2cc(C)cs2)C(C)C)cc1 (stereo not shown) [Compound 84]
shift in cell cycle population [3]: shift in the population of cells from a G0/G1 stage (2N DNA content) to a G2/M stage (4N DNA content)
IC50 [1]: < 30 µM
tumor growth inhibition at day 20 ([2]; 60 mg/Kg, q3dx3, day 20): more than 90%

Cc1ccc(C(=O)N(CCN)C(c2nc3c(oc4ccc(F)cc43)c(=O)n2Cc2ccc(C(F)(F)F)o2)C(C)C)cc1 (stereo not shown) [Compound 86]
shift in cell cycle population [3]: shift in the population of cells from a G0/G1 stage (2N DNA content) to a G2/M stage (4N DNA content)
IC50 [1]: < 30 µM

Cc1csc(Cn2c(C(C(C)C)N(CCN)C(=O)c3ccc(C)c(F)c3)nc3c(oc4ccc(F)cc43)c2=O)c1 (stereo not shown) [Compound 168]
shift in cell cycle population [3]: shift in the population of cells from a G0/G1 stage (2N DNA content) to a G2/M stage (4N DNA content)
IC50 [1]: < 30 µM

Cc1ccc(C(=O)N(CCN)[C@@H](c2nc3c(oc4ccc(F)cc43)c(=O)n2Cc2ccc(Br)o2)C(C)C)cc1 [Compound 177]
shift in cell cycle population [3]: shift in the population of cells from a G0/G1 stage (2N DNA content) to a G2/M stage (4N DNA content)
IC50 [1]: < 30 µM
